This is an account of results in ChEMBL document CHEMBL1201862, “PubChem BioAssay data set” (2004).

Common to all, as to test: NCI tumour cell line growth inhibition, 48 h
Assay [1] relates to ACHN.
For assay [2], the system named is HL-60.
For assay [3], the system named is SF-539.
The test system of assay [4] is A498.
Assay [5] concerns OVCAR-5.
The test system of assay [6] is MOLT-4.
The test system of assay [7] is SF-295.
In assay [8] the test system is K562.
The test system of assay [9] is SNB-19.
For assay [10], the system named is UACC-257.
Assay [11] concerns RPMI-8226.
Assay [12] concerns RXF 393.
The test system of assay [13] is NCI-H226.
Assay [14] relates to KM12.
Assay [15] concerns HCC 2998.
The test system of assay [16] is U-251.

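Each compound was tested at five concentrations against cells in 96-well plates for 48 hours. GI50: concentration for 50% inhibition of growth.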 Calls of active or inactive are those of the source. Rule as the data show it: active = GI50 up to about 1.1 µM and inactive = higher.

Turning to `N#C/C(=C1\OC(=N)C(c2ccc(Cl)cc2Cl)C1=O)c1ccc(Cl)cc1Cl` (stereo not drawn), the GI50 in assay [1], in assay [2], in assay [3], in assay [4], in assay [5] and in assay [6] was > 100 µM (inactive) in each case. Moreover, the GI50 in [7], in assay [8], in [9], in assay [10], in [11] and in assay [12] was > 100 µM (inactive) each time. Besides, the GI50 in assay [13] is > 100 µM (inactive).
Regarding `Cn1cnc([N+](=O)[O-])c1Sc1nc2cc(Cl)c(F)cc2[nH]1`, the GI50 was 12.9 µM (inactive) in assay [1]; 15 µM (inactive) in [14]; 4.32 µM (inactive) in [3]; 18.6 µM (inactive) in [4]; 16.8 µM (inactive) in assay [5]; 2.08 µM (inactive) in assay [6]. Further, the GI50 in [7] is 48.4 µM (inactive); in assay [15], 7.6 µM (inactive); in [9] it was 26.4 µM (inactive); in assay [10], 11.6 µM (inactive); in assay [11], 7.24 µM (inactive); in assay [16], 8.41 µM (inactive). In addition, the GI50 is 3.69 µM (inactive) in [12] and 9.55 µM (inactive) in [13].
As for `c1ccc(CN2CCCCC(Sc3ccccc3)CC2)cc1` (stereo not drawn), the GI50 in assay [1] was 47.3 µM (inactive); in [14], > 100 µM (inactive); in assay [2], 23.3 µM (inactive); in assay [3], 29.8 µM (inactive); in assay [4], > 100 µM (inactive); in [5], 18.3 µM (inactive). The GI50 in assay [6] was 20.8 µM (inactive); in [7] it was 40.5 µM (inactive); in [15], 16 µM (inactive); in [8] it was 15.5 µM (inactive); in [9], 34 µM (inactive); in assay [10] it was > 100 µM (inactive). The values for the GI50 in assay [11], in [16] and in [13] were 17.8 µM (inactive), 15.9 µM (inactive) and 32.1 µM (inactive), respectively.
For `NC(=O)N/N=C(/c1nc2ccc([N+](=O)[O-])cc2nc1O)C(O)c1ccco1` (stereo not drawn), the GI50 in assay [1] was 28.4 µM (inactive); in assay [2], 13.1 µM (inactive); in assay [3], 15.8 µM (inactive); in assay [5] it was > 100 µM (inactive); in assay [6], 94.6 µM (inactive); in assay [7], 80.7 µM (inactive). In addition, the GI50 in assay [15] was 31 µM (inactive); in [8], 33.9 µM (inactive); in assay [9], > 100 µM (inactive); in assay [10], > 100 µM (inactive); in assay [11] it was 43 µM (inactive); in assay [16], 54.2 µM (inactive). Also, the GI50 in assay [12] and in [13] was > 100 µM (inactive) in each case.
For the compound `CNC(SC)=C1C(=O)OC(C)(C)OC1=O`, the GI50 in assay [1], in assay [14], in [2], in [4], in assay [5] and in assay [6] was > 100 µM (inactive) each time. The GI50 in assay [7], in assay [15], in [8], in assay [9], in assay [10] and in assay [11] was > 100 µM (inactive) each time. Moreover, the figures for the GI50 in [16], in assay [12] and in assay [13] were 18.1 µM (inactive), 68.9 µM (inactive) and > 100 µM (inactive), respectively.
With `CCOC(=O)/C(=C/c1cccc(C#N)c1)N(CC)CC`, the GI50 in assay [1], in [14], in assay [2], in assay [3], in assay [4] and in [5] was > 100 µM (inactive) each time. The GI50 in assay [6], in assay [7], in assay [15], in assay [8], in [10] and in assay [11] was > 100 µM (inactive) in each case. Further, the GI50 in assay [16] and in [13] was > 100 µM (inactive) throughout.
For the compound `COc1ccc(C2=NN(c3ccccc3)C[N+](c3ccc(C)cc3)=N2)cc1`, the GI50 in assay [1] was 50.2 µM (inactive); in assay [14], > 10 µM (inactive); in assay [2], 27.7 µM (inactive); in assay [4], 63 µM (inactive); in assay [5], 29.9 µM (inactive); in [6], 19.8 µM (inactive). Also, the GI50 in [7] is > 100 µM (inactive); in [15] it was > 100 µM (inactive); in [8] it was 14.6 µM (inactive); in assay [9], 34.1 µM (inactive); in assay [10], > 100 µM (inactive); in assay [11], 26.9 µM (inactive). Besides, the GI50 was 20.6 µM (inactive) in [16], 19.5 µM (inactive) in assay [12] and 55.3 µM (inactive) in assay [13].
For `O=c1[nH][nH]c(=O)[nH]1`, the GI50 in [14], in assay [2], in assay [3], in [5], in assay [6] and in assay [7] was > 100 µM (inactive) throughout. The GI50 in [15], in assay [8], in assay [9], in assay [10], in [11] and in [16] was > 100 µM (inactive) in each case. The GI50 in assay [12] and in [13] was > 100 µM (inactive) throughout.
As for `CC(=O)Nc1ccc(C(=O)NN2C(=O)C(Cl)C2c2ccccc2O)cc1` (stereo not drawn), the GI50 in [1] was > 100 µM (inactive); in assay [2], 84.7 µM (inactive); in [3] it was 42.1 µM (inactive); in [4], > 100 µM (inactive); in assay [5], > 100 µM (inactive); in assay [7], 29.1 µM (inactive). Also, the GI50 in assay [8] is > 100 µM (inactive); in assay [9], 36.6 µM (inactive); in [10], > 100 µM (inactive); in assay [16] it was 15.8 µM (inactive); in [12], 24.1 µM (inactive); in [13], > 100 µM (inactive).
As to `C=CCC(O)c1cc(OC)ccc1OC` (stereo not drawn), the GI50 is > 100 µM (inactive) in [1]; > 100 µM (inactive) in assay [14]; > 100 µM (inactive) in [2]; > 100 µM (inactive) in assay [3]; > 100 µM (inactive) in assay [5]; > 10 µM (inactive) in assay [6]. The GI50 in [7], in assay [15], in assay [8], in assay [9], in assay [10] and in [11] was > 100 µM (inactive) each time. The GI50 in assay [16], in [12] and in assay [13] was > 100 µM (inactive) each time.
Turning to `O=C1c2ccccc2C(=O)C2C3c4ccccc4C(c4ccccc43)C12` (stereo not drawn), the GI50 in assay [1] was 30.6 µM (inactive); in assay [14], 28.2 µM (inactive); in assay [3], 12.5 µM (inactive); in [6], 12.7 µM (inactive); in assay [7], 12.8 µM (inactive); in assay [15], 36.3 µM (inactive). For the same compound, the GI50 was 15.9 µM (inactive) in assay [8]; 26.9 µM (inactive) in assay [9]; 23.7 µM (inactive) in [10]; 10.9 µM (inactive) in [11]; 31 µM (inactive) in assay [16]; 7.8 µM (inactive) in assay [12]. Besides, in assay [13], the GI50 was 77.3 µM (inactive).
As to `c1cncc(C2c3[nH]c4ccccc4c3CCN2CCN2CCCCC2)c1` (stereo not drawn), the GI50 is > 100 µM (inactive) in [1]; > 100 µM (inactive) in [14]; 41.5 µM (inactive) in assay [2]; > 100 µM (inactive) in [3]; 70.8 µM (inactive) in assay [4]; > 100 µM (inactive) in assay [5]. Moreover, the GI50 in assay [6] is > 100 µM (inactive); in assay [7], > 100 µM (inactive); in [15] it was > 100 µM (inactive); in assay [8], 35.6 µM (inactive); in [9], > 100 µM (inactive); in assay [10], 32.9 µM (inactive). Further, the GI50 was 62.8 µM (inactive) in assay [11] and > 100 µM (inactive) in [16].
Consider `CN(C)CCNC(=O)c1ccc(Cl)c2c(Nc3ccc(S(N)(=O)=O)cc3)c3ccccc3nc12`, for which the GI50 in assay [1] is 1.67 µM (inactive); in assay [14], 1.39 µM (inactive); in assay [2] it was 0.553 µM (active); in [3], 1.21 µM (inactive); in assay [4], 2.72 µM (inactive); in assay [5] it was 2.95 µM (inactive). The GI50 in assay [6] was 0.198 µM (active); in [7], 3.41 µM (inactive); in assay [15] it was 3.03 µM (inactive); in assay [8] it was 0.612 µM (active); in [9] it was 1.84 µM (inactive); in assay [10], 3.44 µM (inactive). Moreover, the GI50 is 4.5 µM (inactive) in [11], 2.16 µM (inactive) in assay [16] and 1.45 µM (inactive) in [13].
`N=C1NC2(O)C(=O)c3ccccc3C2(O)N1` (stereo not drawn): the GI50 in assay [1], in assay [14], in [2], in [3], in [4] and in assay [5] was > 100 µM (inactive) in each case. For the same compound, the GI50 in [6], in assay [7], in [8], in assay [9], in assay [10] and in assay [11] was > 100 µM (inactive) throughout. The GI50 in [16], in [12] and in [13] was > 100 µM (inactive) throughout.
